# Laboratory results: US12564583B2, “Small molecules against cereblon to enhance effector T cell function” (H. LEE MOFFITT CANCER CENTER AND RESEARCH INSTITUTE, INC., priority 2016, dated 2026)
# How the values were obtained:
# K562 = assay: Viability of sensitive cell line relative to DMSO; type: cell-based
# [1] = Viability of sensitive cell line relative to DMSO; type: cell-based; parameters: concentration or dose not given beside the values; details: human, lymphocytes
# THP-1 = assay: Viability of sensitive cell line relative to DMSO; type: cell-based
# U-937 = assay: Viability of sensitive cell line relative to DMSO; type: cell-based
# MM1.S = assay: Viability of sensitive cell line relative to DMSO; type: cell-based, human
# Description: (§1) For proliferation studies, 1-2×10^4 cells per well were seeded in a 96-well plate and were treated with using cell-counting-8 kit (CCK8) (Dojindo, Rockville, MD) according to manufacturer's protocol.
# U266 = assay: Viability of sensitive cell line relative to DMSO; type: cell-based, human
# Description: as §1
# [2] = target: thalidomide binding domain (TBD) of cereblon (Homo sapiens, UniProt Q96SW2); assay: Cereblon binding (DSF, FP/FI)
# thalidomide binding domain (TBD) of cereblon, sequence (Q96SW2 318-426 limits assumed): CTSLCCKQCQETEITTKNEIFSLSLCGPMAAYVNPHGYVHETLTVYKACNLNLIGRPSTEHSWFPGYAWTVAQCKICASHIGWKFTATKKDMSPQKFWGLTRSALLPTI
# Description: Several libraries are available for screening inhibitors. Virtual analysis was formulated and then theoretical design of chemical test kit and virtual screen of test kit were carried out. Physical binding studies were also completed for the initial compounds using DSF and FP assays after they are fully tested. TEST KITs that represent the compounds identified from each of the available chemical libraries based on virtual chemical structures were also made.
# HL-60 = assay: Viability of sensitive cell line relative to DMSO; type: cell-based
# human TBD wild type = target: T1, human TBD wild type (Homo sapiens, UniProt Q96SW2); assay: Intrinsic tryptophan fluorescence assay (IF); type: binding
# T1 construct: The gene coding for the human TBD (aa 317-425) was synthesized; GST (PreScission site, pGEX-6P-1) (N, cleaved yes); made in house; host or cells: E. coli Rosetta 2(DE3)pLysS
# T1 sequence (Q96SW2 317-425): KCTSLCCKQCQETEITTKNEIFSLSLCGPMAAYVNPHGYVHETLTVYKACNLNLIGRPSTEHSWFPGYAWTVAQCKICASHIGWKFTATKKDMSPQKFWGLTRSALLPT
# Description: Intrinsic tryptophan fluorescence assay: Binding of compounds to wild-type and mutant TBD was monitored by fluorescence spectroscopy, using an adapted previously published method (14). All chemicals used in this assay were purchased from Sigma-Aldrich unless otherwise stated. In this assay, changes in emission spectra are induced by interactions of these compounds with the three Trp residues (Trp380, Trp386 and Trp400) in the binding site (15, 16). […] A 0.5% final DMSO concentration was used in each well. […] All measurements were done in triplicate and corrected for inner filter effect to subtract for ligand-associated fluorescence, as described (17). […] Graph plotting and curve fitting to obtain apparent dissociation constant (KD) values were calculated by fitting the relative change in intrinsic fluorescence at 340 nm (1-F/F0) versus ligand concentration to a nonlinear regression with one-site binding hyperbola with GraphPad Prism Sofware (GraphPad Software, La Jolla, CA).
# c-Myc mRNA = assay: qRT-PCR of c-Myc in T cells; type: cell-based; details: primary mouse T cells, 72 h
# Description: qRT-PCR: Isolated T cells from Crbn^+/+ and Crbn^−/− mice were lysed, homogenized (Qiashredder, Qiagen), and total RNA extracted (RNeasy, Qiagen) according to manufacturer protocol. Complementary DNA was generated from isolated RNA (iScript cDNA synthesis Kit, Bio-Rad). RNA expression was analyzed by quantitative real time-polymerase chain reaction (qRT-PCR) using Taqman Universal PCR Master Mix for Taqman probes (Thermo Fischer Scientific) against (cDNA) c-Myc (Mm00487804_m1) and (cDNA) β2M (Mm00437762_m1). Samples were run on an Applied Biosystems 7900 HT and Sequence Detection Systems software.
# [3] = system: BRD4 protein and c-Myc expression; assay: Western blot of BRD4 and c-Myc; type: cell-based, human and mouse
# mouse T cells [4] = assay: Flow cytometry of activated T cells (CD98, viability, division); type: cell-based
# mouse T cells [5] = assay: IL-2 production by stimulated T cells; type: cell-based; details: 10 μM, ± anti-CD28
# human T cells [6] = assay: IL-2 production by stimulated T cells; type: cell-based; details: anti-CD3 stimulated, relative to DMSO
# [7] = system: Human multiple myeloma cell lines U266, H929, MM1.S, and OPM2; assay: Growth suppression of multiple myeloma cells; type: cell-based; details: for IC50: Homo sapiens, Multiple myeloma cell, read-out: IC50 doses
# Description: as §1
# human T cells [8] = assay: Viability and proliferation of activated T cells; type: cell-based
compound,measurement,setting,value
O=C1CCC(NCCc2ccccn2)C(=O)N1 (centres unmarked),Viability (%) (Relative to DMSO),K562,80.0%
same,viability,[1],91.1%
same,Viability (%) (Relative to DMSO),THP-1,98.8%
same,Viability (%) (Relative to DMSO),U-937,58.4%
same,Viability (%) (Relative to DMSO),MM1.S,29.9%
same,Viability (%) (Relative to DMSO),U266,27.0%
same,inhibition at 200 µM,[2]; read-out: Cereblon Binding (≥50% inhibition at 200 μM),> 50%
same,Viability (%) (Relative to DMSO),HL-60,81.8%
CNc1ccccc1C(=O)NCCNC1CC(=O)NC1=O (centres unmarked),Viability (%) (Relative to DMSO),K562,21.1%
same,viability,[1],92.6%
same,Viability (%) (Relative to DMSO),THP-1,41.1%
same,Viability (%) (Relative to DMSO),U-937,6.3%
same,Viability (%) (Relative to DMSO),MM1.S,53.6%
same,Viability (%) (Relative to DMSO),U266,0.1%
same,Cereblon Binding (≥50% inhibition at 200 μM),[2]; at 200 μM,No
same,Viability (%) (Relative to DMSO),HL-60,12.0%
Cc1sc2c(c1C)C(c1ccc(Cl)cc1)=N[C@@H](CC(=O)OC(C)(C)C)c1nnc(C)n1-2 [JQ1],binding affinity for CRBN-TBD,human TBD wild type,does not bind
same,c-Myc mRNA,c-Myc mRNA,Suppression
same,BRD4 protein level,"[3]; activated mouse T cells, not dependent on CRBN",slight reduction in protein expression
same,proliferation,mouse T cells [4],compromised
same,surface expression of CD98,mouse T cells [4],reduction
same,viability,mouse T cells [4],compromised
"Nc1cccc2c1CN(C1CCC(=O)NC1=O)C2=O (centres unmarked) [Lenalidomide, lenalidomide]",lenalidomide-induced increase in IL-2,mouse T cells [5],only human T cells displayed the expected lenalidomide-induced increase in IL-2
same,levels of IL2 mRNA and protein,human T cells [6],significantly increased
same,IC50,[7],7 to 16 µM
"Nc1cccc2c1C(=O)N(C1CCC(=O)NC1=O)C2=O (centres unmarked) [Pomalidomide, pomalidomide]",proliferation,human T cells [8],increase proliferation
same,relative viability,human T cells [8]; 72 h,no effect on viability
same,IC50,[7],0.05 to 0.61 µM
"O=C1CCC(N2C(=O)c3ccccc3C2=O)C(=O)N1 (centres unmarked) [Thalidomide, thalidomide]",growth suppression,[7]; doses up to 200 μM,no suppressive function
Cc1sc2c(c1C)C(c1ccc(Cl)cc1)=N[C@@H](CC(=O)NCCCCNC(=O)COc1cccc3c1C(=O)N(C1CCC(=O)NC1=O)C3=O)c1nnc(C)n1-2 (some centres unmarked) [dBET1],BRD4 protein and c-Myc expression,"[3]; human T cells, mouse T cells, MM1.S, 5TGM1",dramatically suppressed
same,surface expression of CD98,mouse T cells [4],reduces the percentage of cells expressing the c-Myc target CD98
same,viability,mouse T cells [4],suppresses viability
